One test concerns the target full-length human PLD2 (Homo sapiens (Human), UniProt O14939). The test can be described thus: Evaluation of human PLD2 enzyme inhibitory activity (Amplex Red / choline oxidase fluorescence). In kind it is biochemical. An outline of the steps: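 Enzyme was N-terminal FLAG-tagged full-length human PLD2 (1-933), expressed in Expi293F cells and anti-FLAG purified. Compound (5% DMSO final) was incubated with enzyme (6 nmol/L solution) and 1,2-diheptanoyl-PC (6 mmol/L solution) in HEPES pH 7.5, KCl, EGTA, MgCl2, NP-40, BSA buffer for 60 min at room temperature. Choline was detected with Amplex Red/choline oxidase/HRP.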

Another test concerns the target full-length human PLD1 (Homo sapiens (Human), UniProt Q13393). The test can be described thus: Evaluation of human PLD1 enzyme inhibitory activity (Amplex Red / choline oxidase fluorescence). In kind it is biochemical. Put shortly:
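N-terminally FLAG-tagged full-length human PLD1 (1-1036), expressed in Expi293F and FLAG-purified, incubated with compound (5% DMSO final) and 1,2-diheptanoyl-sn-glycero-3-phosphocholine for 60 min at room temperature in HEPES pH 7.5 buffer. Released choline detected by Amplex Red/choline oxidase/HRP fluorescence.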

Where [1] appears, read: full-length human PLD2 enzyme, read-out: PLD2 IC50.
[2] abbreviates: full-length human PLD1 enzyme, read-out: PLD1 IC50.

SMILES strings stand for the structures. pIC50: −log10 of the molar value. Read-outs that look alike come from different tables or passages of the source.

Sequence of full-length human PLD1 (Q13393 other isoform, or with tags, fused parts or gaps): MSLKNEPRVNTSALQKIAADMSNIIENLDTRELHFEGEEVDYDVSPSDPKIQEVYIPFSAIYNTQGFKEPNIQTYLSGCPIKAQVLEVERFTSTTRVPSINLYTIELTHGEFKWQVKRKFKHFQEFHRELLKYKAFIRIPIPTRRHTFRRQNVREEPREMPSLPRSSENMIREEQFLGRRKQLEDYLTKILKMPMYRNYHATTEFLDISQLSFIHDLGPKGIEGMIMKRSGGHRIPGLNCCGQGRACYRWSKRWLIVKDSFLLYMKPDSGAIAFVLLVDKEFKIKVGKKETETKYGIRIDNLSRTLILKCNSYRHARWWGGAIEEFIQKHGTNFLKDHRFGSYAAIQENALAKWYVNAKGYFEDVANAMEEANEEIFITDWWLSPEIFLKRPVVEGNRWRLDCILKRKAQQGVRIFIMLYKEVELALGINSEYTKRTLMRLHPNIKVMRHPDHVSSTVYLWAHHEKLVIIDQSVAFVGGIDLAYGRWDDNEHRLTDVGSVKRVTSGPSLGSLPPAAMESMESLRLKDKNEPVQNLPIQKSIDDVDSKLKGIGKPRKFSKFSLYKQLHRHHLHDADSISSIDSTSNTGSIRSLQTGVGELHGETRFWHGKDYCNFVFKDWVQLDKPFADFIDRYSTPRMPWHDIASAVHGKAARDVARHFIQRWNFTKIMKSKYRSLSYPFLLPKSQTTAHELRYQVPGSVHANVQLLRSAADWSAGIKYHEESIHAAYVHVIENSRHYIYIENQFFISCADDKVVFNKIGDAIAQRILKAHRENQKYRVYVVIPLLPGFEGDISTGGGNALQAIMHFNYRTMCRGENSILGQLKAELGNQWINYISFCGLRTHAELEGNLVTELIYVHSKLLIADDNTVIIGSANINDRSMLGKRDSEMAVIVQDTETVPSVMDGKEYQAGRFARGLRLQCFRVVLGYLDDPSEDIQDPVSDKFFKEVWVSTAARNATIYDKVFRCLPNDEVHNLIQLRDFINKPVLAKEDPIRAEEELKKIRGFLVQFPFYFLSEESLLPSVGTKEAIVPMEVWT
Sequence of full-length human PLD2 (O14939 whole entry): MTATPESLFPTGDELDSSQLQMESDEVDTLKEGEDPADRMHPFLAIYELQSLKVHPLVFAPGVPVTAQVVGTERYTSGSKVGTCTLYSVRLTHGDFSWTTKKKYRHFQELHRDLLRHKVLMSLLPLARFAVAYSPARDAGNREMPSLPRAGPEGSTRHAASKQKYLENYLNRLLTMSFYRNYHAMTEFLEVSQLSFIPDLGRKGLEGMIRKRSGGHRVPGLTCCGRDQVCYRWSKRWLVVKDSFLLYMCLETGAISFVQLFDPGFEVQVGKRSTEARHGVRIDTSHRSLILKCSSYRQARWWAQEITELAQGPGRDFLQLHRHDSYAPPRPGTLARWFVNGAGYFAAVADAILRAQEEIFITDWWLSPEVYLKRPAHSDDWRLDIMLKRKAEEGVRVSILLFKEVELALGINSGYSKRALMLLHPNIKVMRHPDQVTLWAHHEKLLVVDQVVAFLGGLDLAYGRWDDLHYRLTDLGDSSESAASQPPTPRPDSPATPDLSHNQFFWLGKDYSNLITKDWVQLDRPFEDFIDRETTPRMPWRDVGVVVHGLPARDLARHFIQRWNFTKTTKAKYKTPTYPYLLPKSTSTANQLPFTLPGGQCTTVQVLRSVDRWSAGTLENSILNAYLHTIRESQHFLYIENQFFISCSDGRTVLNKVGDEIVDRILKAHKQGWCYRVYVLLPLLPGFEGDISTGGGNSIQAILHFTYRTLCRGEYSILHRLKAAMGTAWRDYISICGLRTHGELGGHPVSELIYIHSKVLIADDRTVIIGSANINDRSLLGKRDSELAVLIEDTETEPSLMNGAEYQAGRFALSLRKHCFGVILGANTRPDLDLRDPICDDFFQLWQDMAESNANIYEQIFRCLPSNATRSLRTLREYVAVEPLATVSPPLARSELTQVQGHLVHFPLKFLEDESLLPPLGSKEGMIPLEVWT

As to `CNC(=O)C(=O)N[C@@H](C)CN1CCC2(CC1)OC(=O)NN=C2c1cc(C(C)(C)O)ccc1Br` [Example 2-034], the negative-log IC50 (pIC50) on full-length human PLD2 (setting [1]) was 8.00; at full-length human PLD1 (setting [2]), 7.51.

On to `C[C@@H](C[C@H]1CC[C@]2(CC1)OC(=O)NN=C2c1ccc(F)cc1Cl)NC(=O)c1cc2cc(S(C)(=O)=O)ccc2[nH]1` [Example 62], for which the negative logarithm of the IC50 (pIC50) is 6.65 on full-length human PLD2 (setting [1]) and 6.85 on full-length human PLD1 (setting [2]).

Consider `CNC(=O)C(=O)N[C@@H](C)C[C@H]1CC[C@]2(CC1)OC(=O)NN=C2c1cnc(N2CCC(F)(F)C2)cc1Cl` [Example 241], for which the pIC50 on full-length human PLD2 (setting [1]) is over 8.00; on full-length human PLD1 (setting [2]), 7.77.

For the compound `C[C@@H](C[C@H]1CC[C@]2(CC1)OC(=O)NN=C2c1cccnc1)NC(=O)c1cc2cc(F)ccc2[nH]1` [Example 15], the pIC50 on full-length human PLD2 (setting [1]) is over 8.00; on full-length human PLD1 (setting [2]), 7.60.

For the compound `CNC(=O)C(=O)N[C@@H](C)C[C@H]1CC[C@]2(CC1)OC(=O)NN=C2c1ccc(S(C)(=O)=O)cc1` [Example 10], the negative logarithm of the IC50 (pIC50) at full-length human PLD2 (setting [1]) is 6.97; on full-length human PLD1 (setting [2]) it was 7.04.

`CNC(=O)C(=O)N[C@@H](C)C[C@]1(C#N)CC[C@@]2(CC1)OC(=O)NN=C2c1cc(OC(F)(F)F)ccc1Br` [Example 2-080]: the negative logarithm of the IC50 (pIC50) at full-length human PLD2 (setting [1]) and at full-length human PLD1 (setting [2]) was over 8.00 each time.

As to `[2H]C([2H])([2H])NC(=O)C(=O)N[C@@H](C)C[C@]1(C#N)CC[C@@]2(CC1)OC(=O)NN=C2c1cc(F)ccc1Br` [Example 2-133], the pIC50 was over 8.00 on full-length human PLD2 (column 2 of continuation tables 2-12 to 2-14, read-out: human PLD2 enzyme inhibitory activity IC50) and 7.85 at full-length human PLD1 (column 1 of continuation tables 2-12 to 2-14, read-out: human PLD1 enzyme inhibitory activity IC50).

Consider `Cc1cc(C(=O)N[C@@H](C)C[C@H]2CC[C@]3(CC2)OC(=O)NN=C3c2ccc(C(=O)O)cc2C)[nH]n1` [Example 201], for which the pIC50 on full-length human PLD2 (setting [1]) is 6.43; at full-length human PLD1 (setting [2]) it was 6.48.

In the case of `COc1cc(C)c(C2=NNC(=O)O[C@]23CC[C@@H](C[C@H](C)NC(=O)N2CCn4c(nnc4C(F)(F)F)C2)CC3)cn1` [Example 259], the pIC50 is 5.60 at full-length human PLD2 (setting [1]) and 5.84 at full-length human PLD1 (setting [2]).

For `C[C@@H](C[C@]1(C#N)CC[C@@]2(CC1)OC(=O)NN=C2c1cc(OCC(F)F)ncc1Br)NC(=O)C(=O)NC1CC1` [Example 2-101], the inhibition at 10 µM is 28% on full-length human PLD2 (read-out: human PLD2 % inhibition at 10 μM), 28% on full-length human PLD2 (read-out: inhibition rate of PLD2 at 10 μM compound), 13% on full-length human PLD1 (read-out: human PLD1 % inhibition at 10 μM) and 13% at full-length human PLD1 (read-out: inhibition rate of PLD1 at 10 μM compound).

As to `CNC(=O)C(=O)N[C@@H](C)C[C@H]1CC[C@]2(CC1)OC(=O)NN=C2c1ccc(F)cc1C(C)C` [Example 133], the pIC50 was 7.51 at full-length human PLD2 (setting [1]) and 7.54 on full-length human PLD1 (setting [2]).

Consider `Cc1cc(F)ccc1C1=NNC(=O)O[C@]12CC[C@@H](C[C@H](C)NC(=O)c1ccc(Cl)cn1)CC2` [Example 89], for which the results for the pIC50 on full-length human PLD2 (setting [1]) and at full-length human PLD1 (setting [2]) were 7.43 and 7.42, respectively.

Regarding `C[C@@H](CN1CCC2(CC1)OC(=O)NN=C2c1ccc(C#N)cc1Br)NC(=O)C(=O)NC1CC1` [Example 2-064], the negative logarithm of the IC50 (pIC50) at full-length human PLD2 (setting [1]) was 7.96; on full-length human PLD1 (setting [2]) it was 7.57.

For `Cc1cc(C(=O)N[C@@H](C)C[C@H]2CC[C@]3(CC2)OC(=O)NN=C3c2cnc(N3C[C@@H]4C[C@H]3CO4)cc2Cl)[nH]n1` [Example 240], the negative-log IC50 (pIC50) at full-length human PLD2 (setting [1]) was over 8.00; at full-length human PLD1 (setting [2]), 7.89.

On to `C[C@@H](C[C@H]1CC[C@]2(CC1)OC(=O)NN=C2c1cc(C#N)ccc1Br)NC(=O)C(=O)NC1CC1` [Example 292], for which the results for the pIC50 on full-length human PLD2 (setting [1]) and at full-length human PLD1 (setting [2]) were over 8.00 and 7.64, respectively.

For `CNC(=O)C(=O)N[C@@H](C)C[C@H]1CC[C@]2(CC1)OC(=O)NN=C2c1ccc(OCC(F)(F)F)cc1Br` [Example 86], the values for the pIC50 on full-length human PLD2 (setting [1]) and on full-length human PLD1 (setting [2]) were over 8.00 and 7.89, respectively.

`COc1cc(C)c(C2=NNC(=O)O[C@]23CC[C@@H](C[C@H](C)NC(=O)N2CCn4nccc4C2)CC3)cn1` [Example 237]: the negative-log IC50 (pIC50) is over 8.00 at full-length human PLD2 (setting [1]) and 7.47 on full-length human PLD1 (setting [2]).

Consider `Cc1cc(C(=O)N[C@@H](C)C[C@H]2CC[C@]3(CC2)OC(=O)NN=C3c2ccc(C#N)cc2Cl)[nH]n1` [Example 176], for which the pIC50 at full-length human PLD2 (setting [1]) and on full-length human PLD1 (setting [2]) was 7.54 each time.

In the case of `CNC(=O)C(=O)N[C@@H](C)C[C@H]1CC[C@]2(CC1)OC(=O)NN=C2c1ncccc1C` [Example 147], the pIC50 at full-length human PLD2 (setting [1]) and at full-length human PLD1 (setting [2]) was 7.49 in each case.

Take `Cc1cc(C(=O)N[C@@H](C)CN2CCC3(CC2)OC(=O)NN=C3c2cc(C#N)ccc2Br)[nH]n1` [Example 301]: the values for the negative-log IC50 (pIC50) on full-length human PLD2 (setting [1]) and at full-length human PLD1 (setting [2]) were over 8.00 and 7.52, respectively.

As to `CNC(=O)C(=O)N[C@@H](C)C[C@H]1CC[C@]2(CC1)OC(=O)NN=C2c1cnc(N2CCOCC2)cc1C` [Example 164], the negative-log IC50 (pIC50) on full-length human PLD2 (setting [1]) was over 8.00; at full-length human PLD1 (setting [2]) it was 7.42.

For `CNC(=O)C(=O)N[C@H](C)CN1CCC2(CC1)OC(=O)NN=C2c1ccc(F)cc1Br` [Example 2-011], the pIC50 was 5.53 on full-length human PLD2 (setting [1]) and 5.68 on full-length human PLD1 (setting [2]).

With `CNC(=O)C(=O)N[C@@H](C)CN1CCC2(CC1)OC(=O)NN=C2c1cccc(C(F)(F)F)c1Br` [Example 2-051], the pIC50 at full-length human PLD2 (setting [1]) was over 8.00; on full-length human PLD1 (setting [2]), 7.60.

`C[C@@H](C[C@H]1CC[C@]2(CC1)OC(=O)NN=C2c1ccc(F)cc1Br)NC(=O)C1CC1` [Example 21]: the pIC50 is 6.46 at full-length human PLD2 (setting [1]) and 6.51 on full-length human PLD1 (setting [2]).

In the case of `CBC(=O)C(=O)N[C@@H](C)C[C@H]1CC[C@]2(CC1)OC(=O)NN=C2c1ccc(S(C)(=O)=O)cc1Cl` [Example 51], the pIC50 at full-length human PLD2 (setting [1]) was 7.80; on full-length human PLD1 (setting [2]), 7.48.

Take `CC(=O)N[C@@H](C)C[C@H]1CC[C@]2(CC1)OC(=O)NN=C2c1ccc(F)cc1Br` [Example 11]: the pIC50 at full-length human PLD2 (setting [1]) is 6.40; at full-length human PLD1 (setting [2]) it was 6.64.

Turning to `Cc1cc(C(=O)N[C@@H](C)C[C@H]2CC[C@]3(CC2)OC(=O)NN=C3c2cc(OC(F)F)ccc2Br)[nH]n1` [Example 214], the negative-log IC50 (pIC50) at full-length human PLD2 (setting [1]) and at full-length human PLD1 (setting [2]) was over 8.00 each time.

Regarding `Cc1cc(F)ccc1C1=NNC(=O)O[C@]12CC[C@@H](C[C@H](C)NC(=O)N1Cc3ccccc3C1)CC2` [Example 101], the pIC50 on full-length human PLD2 (setting [1]) and at full-length human PLD1 (setting [2]) was over 8.00 in each case.

As for `C[C@@H](C[C@H]1CC[C@]2(CC1)OC(=O)NN=C2c1ccc(F)cc1C1CC1)NC(=O)c1cc(Cl)no1` [Example 65], the negative logarithm of the IC50 (pIC50) at full-length human PLD2 (setting [1]) and at full-length human PLD1 (setting [2]) was over 8.00 throughout.

For the compound `CNC(=O)C(=O)N[C@@H](C)C[C@H]1CC[C@]2(CC1)OC(=O)NN=C2c1cnc(C(C)(C)O)cc1C` [Example 185], the negative logarithm of the IC50 (pIC50) was 7.19 at full-length human PLD2 (setting [1]) and 7.17 on full-length human PLD1 (setting [2]).

Consider `CNC(=O)C(=O)N[C@@H](C)C[C@H]1CC[C@]2(CC1)OC(=O)NN=C2c1ccc(F)cc1Cl` [Example 44], for which the figures for the negative logarithm of the IC50 (pIC50) at full-length human PLD2 (setting [1]) and on full-length human PLD1 (setting [2]) were over 8.00 and 7.74, respectively.

On to `CNC(=O)C(=O)N[C@@H](C)C[C@H]1CC[C@]2(CC1)OC(=O)NN=C2c1cnc(O)cc1C` [Example 162], for which the pIC50 was 6.27 at full-length human PLD2 (setting [1]) and 6.49 at full-length human PLD1 (setting [2]).

Consider `CNC(=O)C(=O)N[C@@H](C)C[C@H]1CC[C@]2(CC1)OC(=O)NN=C2c1cnc(Cl)cc1C` [Example 158], for which the pIC50 was 7.82 at full-length human PLD2 (setting [1]) and 7.57 on full-length human PLD1 (setting [2]).

For `C[C@@H](C[C@H]1CC[C@]2(CC1)OC(=O)NN=C2c1cccc(OC(F)F)c1Br)NC(=O)c1cnn(C)c1` [Example 309], the negative logarithm of the IC50 (pIC50) at full-length human PLD2 (setting [1]) is over 8.00; at full-length human PLD1 (setting [2]) it was 7.82.

For `CNC(=O)C(=O)N[C@@H](C)C[C@H]1CC[C@]2(CC1)OC(=O)NN=C2c1ccccc1SC(F)(F)F` [Example 2-019], the negative-log IC50 (pIC50) was over 8.00 at full-length human PLD2 (setting [1]) and 7.92 on full-length human PLD1 (setting [2]).

Source of the values: patent US20240101572A1, “DIHYDROOXADIAZINONE COMPOUND AND PHARMACEUTICAL USE THEREOF” (Japan Tobacco Inc., priority 2022, published 2024).
